This is an account of results in PMC8333425, “Discovery of a dual Ras and ARF6 inhibitor from a GPCR endocytosis screen” (Nature Communications, 2021).

Each structure is given as a SMILES string. “And” between values parts separate entries of the source, which are not always exact repeats. Identical values can stand only once.

Common to all, as to type: cell-based, human
In one data set the test system is MDA-MB-231 cells. The data set is described as follows: Cell viability assay (MTT), MDA-MB-231. The settings on record: for cell viability (MTT signal): S_Fig12f, listed as Comp 21.8. The protocol:
MDA-MB-231 breast cancer cells and A549 lung carcinomas (1500 cells in 150 μl/well) were seeded overnight on a clear 96-well plate. Twenty-four hours later, the cells were treated with 0.1% DMSO, or different concentrations of Rasarfin (as indicated), or 10 µM of 21.4, 21.8 (MDA-MB-231 breast cancer cells) or Doxorubicin for the indicated times at 37 °C. At each time point, 10 μl of 5 mg/ml MTT was added to each well and the plates were incubated for an additional 4 h at 37 °C. The absorbance at 590 nm was measured by plate reader. Experiments were done in triplicate and repeated three times.

Data set [1] relates to β-arrestin2 recruitment to AT1R. The data set is described as follows: BRET recruitment of β-arrestin2 to AT1R. The note with it: for AngII-promoted BRET, β-arrestin2 (Barr2) recruitment to AT1R: Comp 21 50 μM, individual experiments. The procedure:
HEK293SL cells were seeded at a density of 7.5 × 10^5 cells per 100-mm dish and 24 h later, transiently transfected as such. For receptor internalization experiments, cells were transfected with 0.12 μg AT1R-RlucII, B2R-RlucII, or β2AR-RlucII and 0.48 μg of either rGFP-CAAX (to assess removal from the PM) or rGFP-FYVE (to assess accumulation in the endosomes). For β-arrestin recruitment assays, cells were transfected with 0.48 μg of receptor-YFP along with 0.12 μg of β-arrestin-RlucII. For β-arrestin/AP-2 binding experiments, cells were transfected with 1 μg Flag-AT1R, 1 μg β2-Adaptin-YFP, and 0.12 μg β-arrestin2-RlucII. For G protein activation, cells were transfected with 3 μg of sp-Flag-AT1R along with either 4.5 μg of the Gαq-polycistronic BRET sensor or 0.24 μg of the Gαi3-RlucII and 0.6 μg of GFP10-Gγ2 and Gβ1 sensors or 0.12 μg PKN-RBD-RlucII and 0.48 μg of rGFP-CAAX. For PKC activation, cells were transfected with 3 μg of sp-Flag-AT1R and 0.18 μg of the PKC sensor. For GTPase activation experiments, cells were transfected with 1 μg Flag-AT1R, 0.48 μg of rGFP-CAAX, and either 0.12 μg of GGA3-PBD-RlucII, PAK-CRIB-RlucII or Raf-RBD-RlucII. For biosensor validation experiments, cells were additionally transfected with 500 ng Flag-K-Ras-WT, Flag-K-Ras-G12V, Flag-K-Ras-SOS-CAAX, HA-ARF6-WT, HA-ARF6-T27N, Myc-Rac1-WT, Myc-Rac1-Q61L or Myc-Rac1-T17N. For PI3K/Akt activation experiments, cells were transfected with 0.48 μg of rGFP-CAAX and 0.12 μg of Akt (PH)-RlucII. After 18 h of transfection, the media was replaced and cells were divided for subsequent experiments. Cells were detached and seeded onto poly-L-ornithine-coated 96-well flat white bottom plates (BrandTech Scientific) at a density of 2.5 × 10^4 cells per well in media. The next day, cells were washed once with Tyrode’s buffer (140 mM NaCl, 2.7 mM KCl, 1 mM CaCl2, 12 mM NaHCO3, 5.6 mM D-glucose, 0.5 mM MgCl2, 0.37 mM NaH2PO4, 25 mM HEPES, pH 7.4) and left in Tyrode’s buffer. For kinetics of β-arrestin recruitment or β-arrestin binding to receptor and AP-2 experiments, cells were serum starved for 30 min, pretreated with 21 (50 µM) or Barbadin (100 µM) for 30 min, stimulated with 100 nM AngII or 1 µM BK and BRET signals were monitored at indicated times using a Victor X Light plate reader (PerkinElmer). Coelenterazine H (final concentration of 5 µM) was added 3–5 min prior to BRET measurements. Filter set was 460/80 nm and 535/30 nm for detecting the RlucII Renilla luciferase (donor) and YFP (acceptor) light emissions, respectively. The BRET ratio was determined by calculating the ratio of the light emitted by YFP over the light emitted by the RlucII. For G protein activation, cells were serum starved, pretreated with compounds for 30 min, stimulated with 100 nM AngII for 2 min (Gαq, Gαi3, and Rho sensors) or 5 min (PKC sensor). For the kinetics of GTPase and PI3K/Akt activation, cells were serum starved, pretreated with 21 (50 µM) or Wortmannin (200 nM) for 30 min, stimulated with ligand (100 nM AngII or 100 ng/ml EGF) and BRET signals were monitored at indicated times. For concentration-response curves, cells were serum-starved, pretreated with various concentrations of compounds for 30 min and stimulated with ligand (100 nM AngII, 1 µM BK, 10 µM Isoproterenol (Iso) or 100 ng/ml EGF) in Tyrode’s buffer for 30 min for receptor internalization, 10 min for ARF6, 2 min for Rac and Rho activation and 5 min for Ras activation and PI3K/Akt activation. BRET signals were monitored using a Synergy2 (BioTek) microplate reader and coelenterazine 400a (final concentrations of 5 µM) added 3–5 min prior to BRET measurements. Filter set was 410/80 nm and 515/30 nm for detecting the RlucII Renilla luciferase (donor) and rGFP/GFP10 (acceptor) light emissions, respectively. The BRET ratio was determined by calculating the ratio of the light emitted by rGFP/GFP10 over the light emitted by the RlucII.

The subject of another data set is Gαi3. The data set is described as follows: Gαi3 BRET sensor, AT1R-mediated. The procedure:
HEK293SL cells were seeded at a density of 7.5 × 10^5 cells per 100-mm dish and 24 h later, transiently transfected as such. For receptor internalization experiments, cells were transfected with 0.12 μg AT1R-RlucII, B2R-RlucII, or β2AR-RlucII and 0.48 μg of either rGFP-CAAX (to assess removal from the PM) or rGFP-FYVE (to assess accumulation in the endosomes). For β-arrestin recruitment assays, cells were transfected with 0.48 μg of receptor-YFP along with 0.12 μg of β-arrestin-RlucII. For β-arrestin/AP-2 binding experiments, cells were transfected with 1 μg Flag-AT1R, 1 μg β2-Adaptin-YFP, and 0.12 μg β-arrestin2-RlucII. […] For kinetics of β-arrestin recruitment or β-arrestin binding to receptor and AP-2 experiments, cells were serum starved for 30 min, pretreated with 21 (50 µM) or Barbadin (100 µM) for 30 min, stimulated with 100 nM AngII or 1 µM BK and BRET signals were monitored at indicated times using a Victor X Light plate reader (PerkinElmer). […] The BRET ratio was determined by calculating the ratio of the light emitted by YFP over the light emitted by the RlucII. […] For the kinetics of GTPase and PI3K/Akt activation, cells were serum starved, pretreated with 21 (50 µM) or Wortmannin (200 nM) for 30 min, stimulated with ligand (100 nM AngII or 100 ng/ml EGF) and BRET signals were monitored at indicated times. […]
On the technique in general: BRET reads energy transfer from a luciferase to a nearby fluorophore.

Take `CCCC(=O)N1CCN(c2ccc(NC(=O)c3cc4ccccc4o3)cc2Cl)CC1` [Compound 21.8]: the “metabolic activity of MDA-MB-231 cells (MTT)” value in the data set on MDA-MB-231 cells (10 µM) is “moderately decreasing the metabolic activity of cancer cells”. For the same molecule, the “cell viability (MTT signal)” value with MDA-MB-231 cells (24h) is 0.2449 and 0.2125 and 0.1916; in the data set on MDA-MB-231 cells (48h), 0.2769 and 0.2869 and 0.2058; in the data set with MDA-MB-231 cells (72h), 0.2794 and 0.3667 and 0.3826.
Regarding `CC(C)C(=O)N1CCN(c2ccc(NC(=O)c3cc4ccccc4o3)cc2Cl)CC1` [Compound 21], the “β-arrestin2 recruitment to AT1R at the PM” value in data set [1] (50 μM) is listed as “did not preclude”. For the same molecule, the “AngII-promoted BRET, β-arrestin2 (Barr2) recruitment to AT1R” value in data set [1] (time 0 min) was 0; in data set [1] (time 5 min), 0.1545 and 0.1824 and 0.1119; in data set [1] (time 10 min), 0.1572 and 0.2061 and 0.1651; in data set [1] (time 15 min), 0.1598 and 0.2035 and 0.1848; in data set [1] (time 30 min), 0.165 and 0.1904 and 0.1659; in data set [1] (time 60 min), 0.1705 and 0.209 and 0.1941. The “MDA-MB-231 cell viability (MTT)” value in the data set with MDA-MB-231 cells (Doxorubicin 10 µM) was “cell viability was not affected”. For the same molecule, in the data set on MDA-MB-231 cells (after 48 and 72 h of treatment, compared to DMSO), the “metabolic activity of MDA-MB-231 cells (MTT)” value was “modestly decreased in a dose-dependent manner the metabolic activity of cancer cells”. In the data set on Gαi3 (50 μM), the “Gαi3 engagement by AT1R (BRET sensor)” value is on record as “lack of inhibitory effects”. Besides, in the data set on Gαi3 (listed as Comp 21), the “Gi3 BRET sensor signal (S_Fig.4b), single experiments” value is 0.11 and 0.122.
